The test system of the test is Plasmodium berghei. The test is described as follows: Luciferase/luciferin-expressing antifolate-resistant parasites were used to infect a culture of HepG2 cells that were pre-incubated with compounds. Infected hepatocytes emit light due to the luciferase reaction. Assay results are presented as the percent inhibition of light emission compared to control. […]. It is filed as functional. As to conditions: sporozoite; for IC90: read-out: LUCIFERASE INFECTION ASSAY - IC90.

Where [1] appears, read: read-out: LUCIFERASE INFECTION ASSAY - IC50.

Some results are limits rather than exact numbers.

With `CC1N(C)c2ccc(/C=C/c3sc4ccccc4[n+]3C)cc2C1(C)C` (configuration not stated), the IC90 (usually the point of the concentration-response curve where the effect stands at 90%) was found to be 4.5 µM. Under “HEPG2TOX_HILL_SLOPE 3.18, HEPG2TOX_R_SQUARED 0.945, PBLUC_HILL_SLOPE 1.61, PBLUC_R_SQUARED 0.672, read-out: LUCIFERASE INFECTION ASSAY - IC50”, the IC50 (usually the concentration at which inhibition is half-maximal) is 1.15 µM.

As to `CCNC(=S)NNC(=O)/C=C/c1ccccc1OC`, the 90% effect concentration (IC90) is > 10 µM. For the same molecule, for the setting “FFLUC_HILL_SLOPE 0.401, FFLUC_R_SQUARED 0.162, HEPG2TOX_HILL_SLOPE 12.3, HEPG2TOX_R_SQUARED 0.97, read-out: LUCIFERASE INFECTION ASSAY - IC50”, the IC50 is > 10 µM.

Regarding `C=CCN(C(=O)c1sc2nc3n(c(=O)c2c1C)CCCCC3)c1nc2c(s1)CCCC2`, the concentration for an effect of 90% (IC90) was > 10 µM. The IC50 (PBLUC_HILL_SLOPE 1.42, PBLUC_R_SQUARED 0.275, read-out: LUCIFERASE INFECTION ASSAY - IC50) was > 10 µM.

For `OCc1ccc(-c2cn3c(-c4ccccc4)cnc3cn2)cc1`, the concentration for an effect of 90% (IC90) was > 11 µM. Moreover, the IC50 (HEPG2TOX_HILL_SLOPE 0.117, HEPG2TOX_R_SQUARED 0.27, read-out: LUCIFERASE INFECTION ASSAY - IC50) was > 11 µM.

Turning to `Cc1cccc(NC(=O)CN2CCN(C(=O)c3csc(-c4ccc(C(C)C)cc4)n3)CC2)c1C`, the 90% effect concentration (IC90) came to 3.81 µM. Moreover, for the setting “PBLUC_HILL_SLOPE 12.3, PBLUC_R_SQUARED 0.609, read-out: LUCIFERASE INFECTION ASSAY - IC50”, the IC50 turned out to be 3.19 µM.

Consider `FC(F)(F)c1cccc(-c2ccc3nnc(-c4cccc(Cl)c4)n3c2)c1`, for which the IC90 was > 10 µM. Also, the IC50 under setting [1] was > 10 µM.

Take `CC(C)N(C(C)C)S(=O)(=O)c1ccc(NNC(=O)Nc2ccccc2F)nc1`: the IC90 was > 10 µM. The IC50 (PBLUC_HILL_SLOPE 3.78, PBLUC_R_SQUARED 0.132, read-out: LUCIFERASE INFECTION ASSAY - IC50) is 6.19 µM.

`CC(C)c1cccc(NS(=O)(=O)c2c[nH]c(C(=O)N3CCCC3)c2)c1`: the IC90 was > 10 µM. Moreover, the IC50 (HEPG2TOX_HILL_SLOPE 1.65, HEPG2TOX_R_SQUARED 0.259, read-out: LUCIFERASE INFECTION ASSAY - IC50) was > 10 µM.

Take `CCOC(=O)/C=C/c1ccc(NC(=O)C2CCCN2c2ncnc3ccccc23)cc1` (configuration not stated): the IC90 was > 10 µM. Also, for the setting “HEPG2TOX_HILL_SLOPE 2.7, HEPG2TOX_R_SQUARED 0.523, PBLUC_HILL_SLOPE 3.32, PBLUC_R_SQUARED 0.679, read-out: LUCIFERASE INFECTION ASSAY - IC50”, the IC50 was 6.13 µM.

`CCN1CCC[C@H]1CNC(=O)C(C)c1ccc2c(c1)[nH]c1ccc(Cl)cc12` (some centres not stated): the IC90 was determined as 5.54 µM. The IC50 (HEPG2TOX_HILL_SLOPE 11.5, HEPG2TOX_R_SQUARED 0.93, PBLUC_HILL_SLOPE 6.18, PBLUC_R_SQUARED 0.807, read-out: LUCIFERASE INFECTION ASSAY - IC50) turned out to be 3.88 µM.

As for `C=CCN(c1ccccc1)S(=O)(=O)c1cc(C(=O)NCc2ccc3c(c2)OCO3)ccc1Cl`, the IC90 is > 10 µM. Further, the concentration for half-maximal inhibition (IC50) under setting [1] was > 10 µM.

For `CC(=O)NCc1ccc(-c2csc(NC(=O)c3cc(-c4ccco4)nc4c3c(C)nn4C)n2)cc1`, the IC90 is > 10 µM. The IC50 under setting [1] was > 10 µM.

Turning to `O=C(/C(=N/Nc1ccc([N+](=O)[O-])cc1)C(=O)C(F)(F)F)c1cccs1`, the IC90 turned out to be 1 µM. Where the note is “HEPG2TOX_HILL_SLOPE 2.64, HEPG2TOX_R_SQUARED 0.853, PBLUC_HILL_SLOPE 14.9, PBLUC_R_SQUARED 0.662, read-out: LUCIFERASE INFECTION ASSAY - IC50”, the IC50 is 0.866 µM.

Consider `COc1ccc(-c2nc(C)c(C(=O)NCc3ccc(-n4cccn4)nc3)s2)cc1`, for which the IC90 was > 10 µM. Besides, the IC50 under setting [1] is > 10 µM.

As for `CC1Cc2cc(S(N)(=O)=O)ccc2N1C(=O)CN1CCCN(c2ccc(C(F)(F)F)cn2)CC1` (configuration not stated), the IC90 was > 10 µM. Also, the IC50 (HEPG2TOX_HILL_SLOPE 3.49, HEPG2TOX_R_SQUARED 0.873, read-out: LUCIFERASE INFECTION ASSAY - IC50) is > 10 µM.

For `Cc1[nH]c2ccc(C(=O)Nc3ccc(-n4cnnn4)cc3)cc2c1C`, the IC90 was > 10 µM. For the same molecule, the half-inhibitory concentration (IC50) under setting [1] was > 10 µM.

As for `CCOc1cc2c(cc1CNC(=O)c1cnc3cc(C)nn3c1C)OC(C)C2` (configuration not stated), the IC90 worked out at 4.78 µM. Besides, the IC50 (PBLUC_HILL_SLOPE 2.71, PBLUC_R_SQUARED 0.828, read-out: LUCIFERASE INFECTION ASSAY - IC50) is 2.13 µM.

As for `O=C(NC1CC1)c1ccc(-c2cnc3cnc(/C=C/c4ccccc4)cn23)cc1`, the 90% effect concentration (IC90) was > 8.67 µM. Where the note is “HEPG2TOX_HILL_SLOPE 0.214, HEPG2TOX_R_SQUARED 0.714, PBLUC_HILL_SLOPE 0.95, PBLUC_R_SQUARED 0.815, read-out: LUCIFERASE INFECTION ASSAY - IC50”, the IC50 was found to be 1.05 µM.

For `CN1/C(=C\C(=O)CCCSc2nnc(-c3ccccc3)n2N)C(C)(C)c2ccccc21`, the IC90 is > 10 µM. Moreover, the IC50 (FFLUC_HILL_SLOPE 2.28, FFLUC_R_SQUARED 0.541, HEPG2TOX_HILL_SLOPE 7.74, HEPG2TOX_R_SQUARED 0.566, PBLUC_HILL_SLOPE 1.71, PBLUC_R_SQUARED 0.591, read-out: LUCIFERASE INFECTION ASSAY - IC50) was 3.64 µM.

As to `Cc1ccc(NNC(=O)c2cnc3c(c2)c(C)nn3C)cc1Cl`, the IC90 was > 10 µM. Besides, the IC50 (PBLUC_HILL_SLOPE 2.54, PBLUC_R_SQUARED 0.422, read-out: LUCIFERASE INFECTION ASSAY - IC50) was found to be 7.03 µM.

As for `CCN1C(c2ccc(C)cc2)=CS/C1=C(/C#N)c1nnc2n1CCCCC2`, the 90% effect concentration (IC90) is > 10 µM. In addition, under setting [1], the IC50 is > 10 µM.

In the case of `Cc1ccc2c(Cl)c(C(=O)Nc3nonc3-c3ccc(F)cc3)sc2c1`, the IC90 worked out at 3.32 µM. Moreover, the IC50 under setting [1] worked out at 1.77 µM.

On to `Cc1ccc(NC(=O)Nc2ccc3nc(-c4ccccc4)nn3c2)cc1`, for which the IC90 is > 10 µM. Further, under setting [1], the IC50 was > 10 µM.

Take `CCN(Cc1ccc(OCc2ccccc2)cc1)C(=O)CN1CCc2cc(S(N)(=O)=O)ccc21`: the IC90 was > 10 µM. Further, where the note is “HEPG2TOX_HILL_SLOPE 0.311, HEPG2TOX_R_SQUARED 0.495, read-out: LUCIFERASE INFECTION ASSAY - IC50”, the half-maximal inhibitory concentration (IC50) was > 10 µM.

On to `O=c1c(Cl)c(Cl)cnn1-c1c(Cl)cc(C(F)(F)F)cc1Cl`, for which the IC90 came out at 1.61 µM. Besides, the IC50 (FFLUC_HILL_SLOPE 19, FFLUC_R_SQUARED 0.471, HEPG2TOX_HILL_SLOPE 2.99, HEPG2TOX_R_SQUARED 0.99, PBLUC_HILL_SLOPE 1.54, PBLUC_R_SQUARED 0.797, read-out: LUCIFERASE INFECTION ASSAY - IC50) came to 0.388 µM.

Consider `Fc1cccc(Nc2cc3c(cn2)ncn3Cc2ccccc2)c1`, for which the concentration for an effect of 90% (IC90) is > 10 µM. Further, the IC50 (HEPG2TOX_HILL_SLOPE 2.72, HEPG2TOX_R_SQUARED 0.764, PBLUC_HILL_SLOPE 2.07, PBLUC_R_SQUARED 0.581, read-out: LUCIFERASE INFECTION ASSAY - IC50) is 8.26 µM.

`O=C(Nc1cccc(C(F)(F)F)c1)Nc1ccc2nc(-c3ccc(F)c(Cl)c3)nn2c1`: the IC90 turned out to be 5.2 µM. The concentration for half-maximal inhibition (IC50) (PBLUC_HILL_SLOPE 7.54, PBLUC_R_SQUARED 0.257, read-out: LUCIFERASE INFECTION ASSAY - IC50) stood at 3.88 µM.

Turning to `COc1ccc(-c2ccc3ncc(-c4ccc5c(c4)OCO5)n3n2)cc1OC`, the IC90 was 1.1 µM. For the same molecule, the IC50 (HEPG2TOX_HILL_SLOPE 2.06, HEPG2TOX_R_SQUARED 0.96, PBLUC_HILL_SLOPE 2.96, PBLUC_R_SQUARED 0.768, read-out: LUCIFERASE INFECTION ASSAY - IC50) is 0.524 µM.

In the case of `CC(C)Nc1cc(C(=O)Nc2ccccc2)ncn1`, the concentration for an effect of 90% (IC90) was > 12.9 µM. Moreover, where the note is “FFLUC_HILL_SLOPE 1.2, FFLUC_R_SQUARED 0.891, PBLUC_HILL_SLOPE 0.483, PBLUC_R_SQUARED 0.815, read-out: LUCIFERASE INFECTION ASSAY - IC50”, the IC50 turned out to be 0.196 µM.

`CNc1snc(C)c1C(=O)N(C)Cc1ccccc1OC(F)(F)F`: the IC90 turned out to be 0.463 µM. Besides, the IC50 (PBLUC_HILL_SLOPE 12.1, PBLUC_R_SQUARED 0.631, read-out: LUCIFERASE INFECTION ASSAY - IC50) was 0.386 µM.

Turning to `COc1ccc(OC)c(-c2csc(NC(=O)c3c(C)nc(C(C)C)nc3SC)n2)c1`, the IC90 is > 10 µM. For the setting “FFLUC_HILL_SLOPE 4.18, FFLUC_R_SQUARED 0.209, HEPG2TOX_HILL_SLOPE 6.05, HEPG2TOX_R_SQUARED 0.136, PBLUC_HILL_SLOPE 1.9, PBLUC_R_SQUARED 0.115, read-out: LUCIFERASE INFECTION ASSAY - IC50”, the IC50 is > 10 µM.

As for `COc1cc(/C=C2\COc3c(Cl)cc(Cl)cc3C2=O)cc(OC)c1O`, the IC90 came to 7.17 µM. Further, where the note is “FFLUC_HILL_SLOPE 30.3, FFLUC_R_SQUARED 0.145, HEPG2TOX_HILL_SLOPE 11.5, HEPG2TOX_R_SQUARED 0.166, PBLUC_HILL_SLOPE 35.9, PBLUC_R_SQUARED 0.493, read-out: LUCIFERASE INFECTION ASSAY - IC50”, the IC50 was determined as 6.74 µM.

With `Cc1cc(C)n(-c2nc(C)c(Br)c(N(C)C)n2)n1`, the IC90 is > 10.6 µM. Moreover, the IC50 under setting [1] was > 10.6 µM.

Turning to `CCOc1cc(C(=O)N(CC2CCCO2)C2CCS(=O)(=O)C2)cc(OCC)c1OCC` (configuration not stated), the IC90 was > 10 µM. The IC50 under setting [1] is > 10 µM.

On to `C=CCNc1nc(-c2ccccc2)c(C(=O)OCC)cc1C#N`, for which the IC90 is > 10.7 µM. The IC50 (HEPG2TOX_HILL_SLOPE 2.72, HEPG2TOX_R_SQUARED 0.984, PBLUC_HILL_SLOPE 4, PBLUC_R_SQUARED 0.181, read-out: LUCIFERASE INFECTION ASSAY - IC50) worked out at 6.9 µM.

Regarding `C=CCNc1nc2cc(-c3ccccc3C)sc2c(=O)n1C`, the IC90 is > 10.6 µM. For the same molecule, the IC50 (HEPG2TOX_HILL_SLOPE 8.49, HEPG2TOX_R_SQUARED 0.617, read-out: LUCIFERASE INFECTION ASSAY - IC50) is > 10.6 µM.

(Values after ChEMBL document CHEMBL4483862, “Open-source discovery of chemical leads for next-generation chemoprotective antimalarials” (2018).)
